# “And” between values parts separate entries of the source, which are not always exact repeats. Equal values may be shown once. Where a name gives a salt, the structure may show the parent alone. Read-outs that look alike come from different tables or passages of the source.
# What was measured:
# [1] = tested on: haloperidol-induced catalepsy in mice; assay: Reversal of haloperidol-induced catalepsy in mice; format: in vivo, mouse; conditions: peak effect at 7.5-10 mg/kg, 3 hours after haloperidol
# Experimental: All drugs were administered i.p. in a volume of 0.2 mL. Two hours later, haloperidol was injected s.c. at a dose of 6 mg/kg in a volume of 0.1-0.2 mL. Motor coordination tests were made at 3 hours after giving haloperidol, that is, 5 hours after administering the presumed protective drugs.
# Motor coordination tests and rigidity were quantified according to three different parameters: (a) ability to walk the length of a horizontal rod, 80 cm-long; (b) ability to climb down, face down, a vertical rod, 80 cm-long; (c) duration of immobility in an unnatural sitting posture whereby the abdomen of the mouse is pressed against a “wall.” Full performance as in haloperidol-untreated mice is given the score of 4 in each test, or a total of 12 in all tests. Poor performance is given a score from 1 to 3.
# [2] = tested on: crush-injured rat optic nerve; conditions: rats, 2 mg/kg i.p. immediately after optic nerve crush
# Text: At short terms, metabolic measurements were monitored in terms of the mitochondrial NADH/NAD ratio, which depends on the activity of the electron transport system, and thus indicate levels of energy production.
# Monitoring of the intramitochondrial NADH redox state is based on the fact that NADH, unlike the oxidized form NAD^+, fluoresces when illuminated at […]. A flexible Y-shaped bundle of optic fibers (light guide) was used to transmit the light to and from the optic nerve. […] Changes in the reflected light were correlated with changes in tissue absorption caused by hemodynamic effects and with movements of the optic nerve secondary to alterations in arterial blood pressure and nerve volume.
# Animal utilization was in accord with the ARVO Resolution on the use of animals in research. […] With the animal's head held in place by a head holder, a lateral canthotomy was performed under a binocular operating microscope and the conjuctiva was incised lateral to the cornea.
# MCA-occluded Wistar rats [3] = tested on: MCA-occluded Wistar rats
# Experimental: (§1) Middle cerebral artery occlusion (MCAO) in the rat. […] Male Wistar rats (Olac England-Jerusalem) 300-400 g each were anesthetized with a solution of Equitesine administered i.p. at a dose of 3 mL/kg. Equitesine consists of 13.5 mL sodium pentothal solution (60 mg/mL), 3.5 g chloral hydrate, 1.75 g MgSO4, 33 mL propylene glycol, 8.3 mL absolute alcohol made up to 83 mL with distilled water. […] In order to expose the left middle cerebral artery, a cut was made in the temporal muscle. The tip of the coronoid process of mandible was excised as well and removed with a fine rongeur. Craniectomy was made with a dental drill at the junction between the median wall and the roof of the inferotemporal fossa. The dura matter was opened carefully using a 27 gauge needle. The MCA was permanently occluded by microbipolar coagulation at low power setting, beginning 2-3 mm medial to the olfactory tract between its cortical branch to the rhinal cortex and the laterate striate arteries.
# After coagulation, the MCA was severed with microscissors and divided to ensure complete occlusion. Following this, the temporalis muscle was sutured and laid over the craniectomy site. The skin was closed with a running 3-0 silk suture. A shad craniectomy operation was performed on a parallel group of rats, but without cauterization of the MCA. During the entire surgical operation (20-25 min) in either group, body temperature was maintained at 37 to 38° C. by means of a body-temperature regulator (Kyoristsu, Japan) consisting of a self-regulating heating pad connected to a rectal thermistor. […] The volume of brain tissue incurring damage following ischemia was determined.
# 1 mg/kg immediately after surgery.
# 0.5 mg/kg 2 hours after surgery
# Then multislices T2-weighted images (3000/80) were acquired (5 contiguous slices, 3 mm thick).
# The following MRI parameters were determined for each group of rats:
# The use of contiguous slices allows the conversion-of area units into volume units by simply multiplying the area value by the slice thickness
# MCA-occluded Wistar rats [4] = tested on: MCA-occluded Wistar rats; remark: listed apart in the source
# Experimental: as §1
# After coagulation, the MCA was severed with microscissors and divided to ensure complete occlusion. Following this, the temporalis muscle was sutured and laid over the craniectomy site. The skin was closed with a running 3-0 silk suture. A shad craniectomy operation was performed on a parallel group of rats, but without cauterization of the MCA. […] The volume of brain tissue incurring damage following ischemia was determined. […]
# [5] = tested on: maximal electroshock seizures in mice; assay: Maximal electroshock test (MES test) in mice; format: in vivo, mouse; conditions: 100 mg/kg
# Text: The MES test is a classical model to indicate efficacy for partial and generalized seizures in humans. The agents' mechanism of action is via their ability to prevent the spread of seizures. Some agents, however, that prevent seizure spread have the side effect of lowering seizure threshold. These agents therefore have both proconvulsive and anticonvulsive side effects.
# [6] = tested on: neonatal rat cerebellum cell cultures; conditions: for Percent Protection: after subtraction of solvent effect
# Experimental: Procedures: cultures of mechanically dissociated neonatal rat cerebellum. […] The cerebella are then dissociated after 20-25 passages through a sterile 13 gauge, 10 cm long stainless steel needle attached to a 5 ml syringe with an inserted 45 μm pore size nylon sieve. The dissociated cells are centrifuged at 200 g for 5 minutes, the supernatant discarded and the cells resuspended in enriched medium. The cell viability is determined by the trypan blue exclusion test. […] After 4 days in culture, the media are replaced with media containing the desired test compounds. Experiments are done in duplicate and repeated 2 or 3 times. […] Nerve cell survival is evaluated by phase contrast microscopy and trypan blue staining after 24 h.
# Values, expressed as the percent of untreated controls, represent the average of 2 experiments run in duplicate for culture experiments, and the mean±SEM of 4 animals for ischemia. The percent protection value is the effect of the test compound after subtraction of the solvent effect.
# [7] = tested on: Metrazol seizure threshold in mice; assay: Timed Intravenous Infusion of Metrazol test; format: in vivo, mouse; conditions: 141 mg/kg
# Experimental: Timed Intravenous Infusion of Metrazol Test. This test measures the minimal seizure threshold of each animal. Metrazol is infused at 0.185 mg/ml into the tail veins of mice.
# [8] = tested on: amphetamine-induced stereotype behavior in senescent rats; assay: Amphetamine-induced stereotype behavior in senescent rats; format: in vivo, rat; conditions: control senescent rats, 0.5 mg/kg/day in drinking water, amphetamine 0.5 mg/kg s.c.
# Experimental: 45 minutes later, lateral head movements were counted.
# [9] = tested on: passive avoidance response in young rats; assay: Passive avoidance test in young rats (memory); format: in vivo, rat; conditions: Protocol B (0.5 mg/kg/day), anoxia-lesioned rats
# Text: The effect of R(+)-PAI and S(−)-PAI on the improvement or restoration of memory was investigated in the passive avoidance test. If the drug is effective, it increases the latency of response to enter a dark compartment or chamber where an electroshock has been experienced earlier by the rat being tested. The latency of the maximal response is 300 seconds.
# [10] = tested on: MPTP-induced striatal DA and DOPAC depletions in mice; assay: Suppression of MPTP-induced dopaminergic toxicity (striatal DA and DOPAC); format: in vivo, mouse; conditions: PAI […] i.p., deprenyl 5 mg/kg i.p., 5 days
# [11] = tested on: anoxia-induced hyperactive syndrome in juvenile rats; assay: Anoxia-induced hyperactive syndrome in juvenile rats; format: in vivo, rat; conditions: 0.5 mg/kg/day to nursing mother
# Experimental: Anoxia was performed on rat pups on the first post-natal day. They were placed in a glass chamber and exposed to 100% nitrogen for 25 minutes. They were resuscitated by intermittent massage softly applied to the chest and then returned to their respective mothers. Control rats received the same treatment but with air instead of nitrogen.
# Locomotion was measured in 6 fully computerized cages (28×28 cm) by recording the number of crossings over a given period of time. Crossings of grid infrared beams at 4-cm intervals initiated electrical impulses which fed a counter. Recordings of motor activity were made at the ages of 15 and 20 days, over a period of 15 minutes.
# [12] = pretreatment 1 h before MPTP 30 mg/kg s.c.
structure (smiles),measurement,setting,value
"C#CCN[C@@H]1CCc2ccccc21.CS(=O)(=O)O [(R)-PAI Mesylate, R-(+)-N-propargyl-1-aminoindan mesylate]",peak activity score as % of saline control,[1],94%
same,effect on injury-induced reduction in energy production (NADH response to anoxia),[2],blocked the injury-induced reduction in energy production
same,"Infarct size, MEAN ± SD","MCA-occluded Wistar rats [3]; Table 21, n=9, MRI T2 scan 48 h after MCA-O, 1.0, 0.5, 1.0 mg/kg ip at 0, 2, 24 hrs",163.5 ± 43.9 mm^3
same,reduction of infarct size,"MCA-occluded Wistar rats [3]; Table 21, n=9 vs 10 untreated",[R](+)PAI Mesylate reduces infarct size by 40% significantly
same,"Infarct size, MEAN + SD","MCA-occluded Wistar rats [3]; Table 22, n=5, MRI 48 hrs after MCA-Occlusion",172 ± 28 mm^3
same,reduction of infarct size,"MCA-occluded Wistar rats [3]; Table 22, n=5 vs 6 untreated MCAO rats, mesylate",36% and 36.3%
same,infarct size as % of that in untreated animals,MCA-occluded Wistar rats [3]; n=9 vs 10 untreated,about 60%
same,"Neurological Score, MEAN + SD","MCA-occluded Wistar rats [4]; n=5, 24 hrs after MCA-Occlusion, scale 0-13",2.78 ± 1.3
same,reduction of neurological score,"MCA-occluded Wistar rats [4]; n=5 vs 6 untreated MCAO rats, mesylate",54% and 53.7%
same,mice protected,[5],one out of three
same,Surviving Cells (percent of untreated controls),[6]; 0.01 μM + NMDA,12
same,Percent Protection,[6]; 0.01 μM + NMDA,2
same,Surviving Cells (percent of untreated controls),[6]; 1.00 μM + NMDA,22
same,Percent Protection,[6]; 1.00 μM + NMDA,12
same,Surviving Cells (percent of untreated controls),[6]; 10.00 μM + NMDA,37
C#CCN[C@H]1CCc2ccccc21 [(S)-PAI Mesylate],mice protected,[5],three out of three
same,effect on time to first focal seizure and onset of clonus (proconvulsive activity),[7],reduces the time
C#CCN[C@H]1CCc2ccccc21 [S(−)PAI],Stereotype Behavior Rating (lateral head movements in 1 minute),[8],94 ± 18
same,latency After Electroshock,[9],112 ± 112 s
same,latency Before Electroshock,[9],48 ± 19 s
same,striatal DA,[10]; drug alone,174.0 ± 4.8 ng/mg protein
same,striatal DOPAC,[10]; drug alone,7.5 ± 0.2 ng/mg protein
same,striatal DA,[10]; [12],53.4 ± 6.9 ng/mg protein
same,striatal DOPAC,[10]; [12],7.0 ± 0.6 ng/mg protein
same,numbers of crossings of infrared beam grid over 15 minutes,[11]; 15-day old anoxia-lesioned rats,334 ± 196(5)
same,numbers of crossings of infrared beam grid over 15 minutes,[11]; 20-day old anoxia-lesioned rats,778 ± 232(6)
